Reference: US20110269834A1 (priority 2008, published 2011)
Where two headings read alike, the source gives them in different places.

What was measured:
SARS-CoV PLpro [1] = molecular target: T1, SARS-CoV PLpro (Severe acute respiratory syndrome coronavirus, UniProt P0C6X7); experiment: biochemical; settings: for inhibition at 100 µM: read-out: inhibition of PLpro activity
SARS-CoV = experiment: microbe, parasite or virus in culture; format: cell-based, SARS-CoV Urbani strain
HAUSP = molecular target: T2, HAUSP (Homo sapiens, UniProt Q93009); experiment: Inhibitor specificity assay, HAUSP; format: biochemical; settings: Table 6; assayed with 100 μM inhibitor, ubiquitin-AMC substrate
T2 construct: purchased Boston Biochem
T2 sequence (Q93009 whole entry): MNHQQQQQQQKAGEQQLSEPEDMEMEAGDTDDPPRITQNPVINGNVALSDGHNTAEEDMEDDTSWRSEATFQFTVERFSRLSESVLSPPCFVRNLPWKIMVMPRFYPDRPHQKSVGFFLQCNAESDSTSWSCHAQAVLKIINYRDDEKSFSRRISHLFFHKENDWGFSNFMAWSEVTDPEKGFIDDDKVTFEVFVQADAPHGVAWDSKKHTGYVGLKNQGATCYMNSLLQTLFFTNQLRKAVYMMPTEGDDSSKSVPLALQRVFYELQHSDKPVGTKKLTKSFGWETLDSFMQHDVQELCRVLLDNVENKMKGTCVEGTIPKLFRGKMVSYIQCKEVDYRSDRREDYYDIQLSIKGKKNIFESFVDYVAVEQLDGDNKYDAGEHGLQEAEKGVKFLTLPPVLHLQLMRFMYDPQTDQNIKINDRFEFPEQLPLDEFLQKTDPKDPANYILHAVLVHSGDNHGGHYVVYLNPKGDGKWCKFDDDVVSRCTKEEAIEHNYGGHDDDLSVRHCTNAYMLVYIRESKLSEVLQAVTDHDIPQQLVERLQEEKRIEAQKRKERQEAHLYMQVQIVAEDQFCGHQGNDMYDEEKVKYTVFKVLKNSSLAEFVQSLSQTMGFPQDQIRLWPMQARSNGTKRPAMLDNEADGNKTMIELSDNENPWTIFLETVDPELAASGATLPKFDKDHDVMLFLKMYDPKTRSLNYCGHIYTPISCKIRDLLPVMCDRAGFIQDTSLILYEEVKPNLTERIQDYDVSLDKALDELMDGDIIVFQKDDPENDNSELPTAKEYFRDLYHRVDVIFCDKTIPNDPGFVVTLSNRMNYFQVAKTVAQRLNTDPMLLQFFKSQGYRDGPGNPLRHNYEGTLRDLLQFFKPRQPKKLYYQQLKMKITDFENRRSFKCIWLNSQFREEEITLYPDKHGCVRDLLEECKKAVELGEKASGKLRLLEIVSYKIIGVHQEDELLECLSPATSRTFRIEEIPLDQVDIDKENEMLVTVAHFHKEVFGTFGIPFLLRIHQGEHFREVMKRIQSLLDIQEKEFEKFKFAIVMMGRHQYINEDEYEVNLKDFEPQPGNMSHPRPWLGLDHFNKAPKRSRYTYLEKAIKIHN

SARS-CoV PLpro [2] = molecular target: T1, SARS-CoV PLpro; format: biochemical
hUSP18 = molecular target: T3, hUSP18 (Homo sapiens, UniProt Q9UMW8); experiment: Inhibitor specificity assay, USP18; format: biochemical; settings: Table 6; assayed with 100 μM inhibitor, ISG15-AMC substrate
T3 construct: purchased Boston Biochem
T3 sequence (Q9UMW8 1-372): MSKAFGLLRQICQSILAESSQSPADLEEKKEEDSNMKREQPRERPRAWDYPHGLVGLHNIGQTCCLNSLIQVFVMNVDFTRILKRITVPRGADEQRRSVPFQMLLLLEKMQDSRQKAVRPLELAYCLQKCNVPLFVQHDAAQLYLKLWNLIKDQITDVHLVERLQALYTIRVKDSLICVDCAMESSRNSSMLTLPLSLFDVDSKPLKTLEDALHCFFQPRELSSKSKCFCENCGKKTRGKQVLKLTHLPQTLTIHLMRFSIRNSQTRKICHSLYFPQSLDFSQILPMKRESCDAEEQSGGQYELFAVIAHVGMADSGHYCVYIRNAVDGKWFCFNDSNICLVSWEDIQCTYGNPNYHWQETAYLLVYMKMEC

hUCH-L1 = molecular target: T4, hUCH-L1 (Homo sapiens, UniProt P09936); experiment: Inhibitor specificity assay, UCH-L1; format: biochemical; settings: Table 6; assayed with 100 μM inhibitor, ubiquitin-AMC substrate
T4 construct: purchased Biomol International
T4 sequence (P09936 1-223): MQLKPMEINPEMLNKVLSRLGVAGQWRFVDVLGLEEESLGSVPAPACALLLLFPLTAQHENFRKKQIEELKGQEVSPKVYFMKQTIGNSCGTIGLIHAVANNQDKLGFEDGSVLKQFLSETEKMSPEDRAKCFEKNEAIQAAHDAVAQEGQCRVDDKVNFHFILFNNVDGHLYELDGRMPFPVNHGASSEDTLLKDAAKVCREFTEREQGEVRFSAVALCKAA

hUCH-L3 = molecular target: T5, hUCH-L3 (Homo sapiens, UniProt P15374); experiment: Inhibitor specificity assay, UCH-L3; format: biochemical; settings: Table 6; assayed with 100 μM inhibitor, ubiquitin-AMC substrate
T5 construct: purchased Biomol International
T5 sequence (P15374 1-230): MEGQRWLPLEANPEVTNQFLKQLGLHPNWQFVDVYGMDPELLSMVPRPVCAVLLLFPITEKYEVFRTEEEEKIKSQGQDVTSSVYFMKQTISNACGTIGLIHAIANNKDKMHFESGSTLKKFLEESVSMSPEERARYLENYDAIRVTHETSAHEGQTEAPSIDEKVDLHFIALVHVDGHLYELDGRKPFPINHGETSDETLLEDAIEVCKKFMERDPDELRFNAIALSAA

SARS-CoV PLpro [3] = molecular target: T1, SARS-CoV PLpro; format: biochemical; remark: listed apart in the source
SARS-CoV PLpro [4] = molecular target: T1, SARS-CoV PLpro; experiment: biochemical; settings: read-out: percent inhibition of PLpro in primary screen
[5] = Severe acute respiratory syndrome coronavirus, Vero C1008
[6] = read-out: IC50 (μM), enzyme inhibitory activity
[7] = Severe acute respiratory syndrome coronavirus, Vero C1008, 48 h, read-out: EC50 of antiviral activity

Cc1ccccc1C(=O)N[C@H](C)c1ccc2ccccc2c1 [Compound 1b, 2-Methyl-N—[(R)-1-(2-naphthyl)ethyl]benzamide]
inhibition at 100 µM (SARS-CoV PLpro [1]): > 90%
EC50 (SARS-CoV; [5]): > 50 µM

COc1cccc(CNC(=O)C2CCN([C@@H](C)c3ccc4ccccc4c3)CC2)c1 [Compound 61]
IC50 (SARS-CoV PLpro [1]): 13.2 ± 0.6 µM
EC50 (SARS-CoV; [5]): 12 µM

COc1ccc(CNC(=O)C2CCN([C@H](C)c3cccc4ccccc34)CC2)cc1 [Compound 63]
IC50 (SARS-CoV PLpro [1]; read-out: IC50): 0.34 µM
EC50 (SARS-CoV; [5]): 10 µM

Cc1ccc(N)cc1C(=O)N[C@H](C)c1cccc2ccccc12 [Compound 24, 5-Amino-2-methyl-N—[(R)-1-(1-naphthyl)ethyl]benzamide]
IC50 (HAUSP): > 100 µM
PLpro activity recovered after dialysis (SARS-CoV PLpro [2]): Approximately 25%
IC50 (hUSP18): > 100 µM
IC50 (hUCH-L1): > 100 µM
toxicity in Vero E6 cells (Vero E6 cells): without toxicity up to the highest concentration tested
IC50 (hUCH-L3): > 100 µM
mode of inhibition (SARS-CoV PLpro [3]): competitive inhibitor

COc1cccc(CNC(=O)C2CCN([C@H](C)c3cccc4ccccc34)CC2)c1 [Compound 64]
IC50 (SARS-CoV PLpro [1]; read-out: IC50): 0.34 µM
EC50 (SARS-CoV; [5]): 8 µM

Cc1ccccc1C(=O)NC(c1ccccc1)c1ccc2ccccc2c1 (stereo not shown) [Compound 17, 2-Methyl-N-[1-(2-naphthyl)benzyl]benzamide]
IC50 (SARS-CoV PLpro [1]; [6]): > 200 µM

COc1cccc(CNC(=O)C2CCN([C@H](C)c3ccc4ccccc4c3)CC2)c1 [Compound 62]
IC50 (SARS-CoV PLpro [1]): 5.8 ± 0.1 µM

C[C@H](c1cccc2ccccc12)N1CCC(C(=O)NCc2ccc3c(c2)OCO3)CC1 [Compound 69]
EC50 (SARS-CoV; [5]): 3 µM

Cc1ccccc1C(=O)N[C@@H](C)c1ccc2ccccc2c1 [Compound 1a]
inhibition at 100 µM (SARS-CoV PLpro [1]): 14%

Cc1ccc(CNC(=O)OC(C)(C)C)cc1C(=O)N[C@H](C)c1cccc2ccccc12 [Compound 47, 5-N-tert-Butoxycarbonylmethylamino-2-methyl-N^0—[(R)-1-(1-naphthyl)ethyl]benzamide]
EC50 (SARS-CoV; [5]): > 50 µM

C[C@@H](NC(=O)c1ccccc1Cl)c1ccc2ccccc2c1 [Compound 3, 2-Chloro-N—[(R)-1-(2-naphthyl)ethyl]benzamide]
IC50 (SARS-CoV PLpro [1]): 14.5 ± 0.9 µM
fold decrease in inhibitory potency compared to 1b (SARS-CoV PLpro [1]): 2 fold
EC50 (SARS-CoV; [5]): > 50 µM

Cc1ccc(N)cc1C(=O)NC(C)c1ccnc2ccccc12 (racemic) [Compound 50]
IC50 (SARS-CoV PLpro [1]): 1.85 µM

C[C@@H](c1cccc2ccccc12)N1CCC(C(=O)NCc2ccc3c(c2)OCO3)CC1 [Compound 68]
IC50 (SARS-CoV PLpro [1]; read-out: IC50): 0.56 µM
EC50 (SARS-CoV; [5]): 3 µM

Cc1cccc(C(=O)N[C@H](C)c2ccc3ccccc3c2)c1 [Compound 5a, 3-Methyl-N—[(R)-1-(2-naphthyl)ethyl]benzamide]
EC50 (SARS-CoV; [5]): > 50 µM

5-Methylamino-2-methyl-N—[(R)-1-(1-naphthyl)ethyl]benzamide [Compound 2]
EC50 (SARS-CoV; Table 5, antiviral activity against SARS-CoV, highest concentration tested 50 uM, read-out: EC50): 6 ± 0.1 µM

Cc1ccc([N+](=O)[O-])cc1C(=O)N[C@H](C)c1cccc2ccccc12 [Compound 5i, 2-Methyl-5-nitro-N—[(R)-1-(1-naphthyl)ethyl]benzamide]
IC50 (SARS-CoV PLpro [1]): 7.3 ± 0.9 µM
fold decrease in activity compared to 5h (SARS-CoV PLpro [1]): ~3 fold
EC50 (SARS-CoV; [5]): > 50 µM

CNCc1ccc(C)c(C(=O)N[C@H](C)c2cccc3ccccc23)c1 [Compound 49]
EC50 (SARS-CoV; [5]): 5.2 ± 0.3 µM

Cc1cc(N)ccc1C(=O)NC(C)c1ccnc2ccccc12 (racemic) [Compound 52]
IC50 (SARS-CoV PLpro [1]): 2.3 µM

C[C@@H](NC(=O)c1ccc(NC(=O)OC(C)(C)C)cc1)c1ccc2ccccc2c1 [Compound 8, 4-N^0-tert-Butoxycarbonylamino-N—[(R)-1-(2-naphthyl)ethyl]-benzamide]
IC50 (SARS-CoV PLpro [1]): > 200 µM

CCC(NC(=O)c1ccccc1C)c1ccc2ccccc2c1 (racemic) [Compound 14, 2-Methyl-N-[1-(2-naphthyl)propyl]benzamide]
IC50 (SARS-CoV PLpro [1]): > 200 µM

Cc1ccccc1C(=O)NC(C)c1ccc2ccccc2c1 (racemic) [Compound 1, 2-methyl-N-[1-(2-naphthyl)ethyl]benzamide]
EC50 (SARS-CoV; [5]): > 50 µM
inhibition at 20 µM (SARS-CoV PLpro [4]): > 35%

COc1ccccc1CNC(=O)C1CCN([C@H](C)c2cccc3ccccc23)CC1 [Compound 67]
IC50 (SARS-CoV PLpro [1]; read-out: IC50): 1.21 ± 0.04 µM

CC(=O)Nc1ccc(C)c(C(=O)N[C@H](C)c2cccc3ccccc23)c1 [Compound 25, 5-N-Acetylamino-2-methyl-N—[(R)-1-(1-naphthyl)ethyl]benzamide]
IC50 (SARS-CoV PLpro [1]; read-out: IC50): 2.64 ± 0.04 µM
IC50 (SARS-CoV PLpro [1]; [6]): 2.64 ± 0.04 µM
IC50 (SARS-CoV PLpro [1]; read-out: IC50 values (μM) PLpro): 2.6 µM
EC50 (SARS-CoV; [5]): 13.1 ± 0.7 µM
EC50 (SARS-CoV; [7]): 10 to 15 µM
IC50 (hUCH-L1): > 100 µM
toxicity in Vero E6 cells (Vero E6 cells): without toxicity up to the highest concentration tested
IC50 (hUCH-L3): > 100 µM

CCc1ccccc1C(=O)N[C@H](C)c1ccc2ccccc2c1 [Compound 4, 2-Ethyl-N—[(R)-1-(2-naphthyl)ethyl]benzamide]
IC50 (SARS-CoV PLpro [1]): > 200 µM

C[C@@H](NC(=O)c1ccccc1O)c1ccc2ccccc2c1 [Compound 5g, 2-Hydroxy-N—[(R)-1-(2-naphthyl)ethyl]benzamide]
IC50 (SARS-CoV PLpro [1]): > 200 µM

Cc1ccc(N)cc1C(=O)NC(C)(C)c1cccc2ccccc12 [Compound 29, 5-Amino-2-methyl-N-[1-methyl-1-(1-naphthyl)ethyl]benzamide]
EC50 (SARS-CoV; [5]): > 50 µM

Cc1ccccc1C(=O)N[C@H](C)c1cccc2ccccc12 [Compound 5h, 2-Methyl-N—[(R)-1-(1-naphthyl)ethyl]benzamide]
EC50 (SARS-CoV; [5]): 10 ± 1.2 µM
EC50 (SARS-CoV; [7]): 10 to 15 µM
IC50 (hUCH-L1): > 100 µM
toxicity in Vero E6 cells (Vero E6 cells): without toxicity up to the highest concentration tested
IC50 (hUCH-L3): > 100 µM

Cc1cc([N+](=O)[O-])ccc1C(=O)NC(C)c1ccnc2ccccc12 (racemic) [Compound 51]
IC50 (SARS-CoV PLpro [1]): 3.5 µM
